# Experimental data taken from ChEMBL document CHEMBL5346910, “N-sulfonyl peptide-hybrids as a new class of dengue virus protease inhibitors” (Eur J Med Chem, 2023).
# Target: T1, Trypsin (Homo sapiens, UniProt P07477+P07478+P35030)
# Experiment: Inhibition of trypsin (unknown origin) at 50 uM by biochemical assay relative to control
# Type: protein assay
# Details: not given
row,Compound,inhibition [%]
1,CN([C@@H](CCCNC(=N)N)C(=O)N[C@@H](CCCCN)C(=O)N[C@@H](C(N)=O)c1ccccc1)S(=O)(=O)c1ccccc1,< 10
2,Cc1ccc(S(=O)(=O)N(C)[C@@H](CCCNC(=N)N)C(=O)N[C@@H](CCCCN)C(=O)N[C@@H](C(N)=O)c2ccccc2)cc1,20.3
3,N=C(N)NCCC[C@H](NS(=O)(=O)c1ccc(Cl)cc1)C(=O)N[C@@H](CCCCN)C(=O)N[C@@H](C(N)=O)c1ccccc1,< 10
4,CN([C@@H](CCCNC(=N)N)C(=O)N[C@@H](CCCCN)C(=O)N[C@@H](C(N)=O)c1ccccc1)S(=O)(=O)c1ccc(Cl)cc1,13
5,CN([C@@H](Cc1ccc(C(=N)N)cc1)C(=O)N[C@@H](CCCCN)C(=O)N[C@@H](C(N)=O)c1ccc(OCc2ccccc2)cc1)S(=O)(=O)c1ccccc1,22

# Target: T2, Genome polyprotein (dengue virus type 2, UniProt P29990)
# Experiment: Competitive inhibition of DENV-2 NS2B-NS3 protease assessed as inhibition constant by Cheng-Prusoff plot analysis
# Details: not given
row,Compound,Ki [µM]
1,CN([C@@H](Cc1ccc(C(=N)N)cc1)C(=O)N[C@@H](CCCCN)C(=O)N[C@@H](C(N)=O)c1ccc(OCc2ccccc2)cc1)S(=O)(=O)c1ccccc1,0.092

# Target: T1, Trypsin
# Experiment: Stability of the compound assessed as trypsin (unknown origin) mediated compound degradation incubated for 60 mins by UV-based HPLC analysis
# Type: ADME, protein assay
# Details: 1 h
row,Compound,Stability
1,CN([C@@H](CCCNC(=N)N)C(=O)N[C@@H](CCCCN)C(=O)N[C@@H](C(N)=O)c1ccccc1)S(=O)(=O)c1ccccc1,Stable

# Tested on: not listed separately
# Experiment: Stability of the compound assessed as alpha-chymotrypsin (unknown origin) mediated compound degradation incubated for 60 mins by UV-based HPLC analysis
# Type: ADME
# Details: human, 1 h
row,Compound,Stability
1,CN([C@@H](CCCNC(=N)N)C(=O)N[C@@H](CCCCN)C(=O)N[C@@H](C(N)=O)c1ccccc1)S(=O)(=O)c1ccccc1,Stable

# Tested on: not listed separately
# Experiment: Cytotoxicity against human HeLa cells by CellTiter-Blue assay
# Type: toxicity, cell-based
# Details: not given
row,Compound,CC50 [µM]
1,N=C(N)NCCC[C@H](NC(=O)c1ccccc1)C(=O)N[C@@H](CCCCN)C(=O)N[C@@H](C(N)=O)c1ccc(OCc2ccccc2)cc1,> 50
2,CN([C@@H](CCCNC(=N)N)C(=O)N[C@@H](CCCCN)C(=O)N[C@@H](C(N)=O)c1ccccc1)S(=O)(=O)c1ccccc1,> 50
3,Cc1ccc(S(=O)(=O)N(C)[C@@H](CCCNC(=N)N)C(=O)N[C@@H](CCCCN)C(=O)N[C@@H](C(N)=O)c2ccccc2)cc1,> 50
4,N=C(N)NCCC[C@H](NS(=O)(=O)c1ccc(Cl)cc1)C(=O)N[C@@H](CCCCN)C(=O)N[C@@H](C(N)=O)c1ccccc1,> 50
5,CN([C@@H](Cc1ccc(C(=N)N)cc1)C(=O)N[C@@H](CCCCN)C(=O)N[C@@H](C(N)=O)c1ccc(OCc2ccccc2)cc1)S(=O)(=O)c1ccccc1,> 200

# Tested on: not listed separately
# Experiment: Metabolic stability in rat liver microsomes measured for 120 mins by UV-based HPLC analysis
# Type: ADME, Microsome
# Details: 2 h
row,Compound,Stability
1,CN([C@@H](CCCNC(=N)N)C(=O)N[C@@H](CCCCN)C(=O)N[C@@H](C(N)=O)c1ccccc1)S(=O)(=O)c1ccccc1,Stable

# Target: T2, Genome polyprotein
# Experiment: Inhibition of DENV-2 NS2B-NS3 protease by biochemical enzymatic assay
# Details: not given
row,Compound,IC50 [µM]
1,CN([C@@H](CCCNC(=N)N)C(=O)N[C@@H](CCCCN)C(=O)N[C@@H](C(N)=O)c1ccccc1)S(=O)(=O)c1ccccc1,11
2,Cc1ccc(S(=O)(=O)N(C)[C@@H](CCCNC(=N)N)C(=O)N[C@@H](CCCCN)C(=O)N[C@@H](C(N)=O)c2ccccc2)cc1,17.9
3,CN([C@@H](CCCNC(=N)N)C(=O)N[C@@H](CCCCN)C(=O)N[C@@H](C(N)=O)c1ccccc1)S(=O)(=O)c1ccc(Cl)cc1,19.4
4,CN([C@@H](Cc1ccc(C(=N)N)cc1)C(=O)N[C@@H](CCCCN)C(=O)N[C@@H](C(N)=O)c1ccc(OCc2ccccc2)cc1)S(=O)(=O)c1ccccc1,0.11

# Target: Genome polyprotein (dengue virus type 2) (UniProt P29990)
# Experiment: Inhibition of DENV-2 NS2B-NS3 protease at 50 uM by biochemical enzymatic assay relative to control
# Details: not given
row,Compound,inhibition [%]
1,CN([C@@H](CCCNC(=N)N)C(=O)N[C@@H](CCCCN)C(=O)N[C@@H](C(N)=O)c1ccccc1)S(=O)(=O)c1ccccc1,80.6
2,Cc1ccc(S(=O)(=O)N(C)[C@@H](CCCNC(=N)N)C(=O)N[C@@H](CCCCN)C(=O)N[C@@H](C(N)=O)c2ccccc2)cc1,75.8
3,N=C(N)NCCC[C@H](NS(=O)(=O)c1ccc(Cl)cc1)C(=O)N[C@@H](CCCCN)C(=O)N[C@@H](C(N)=O)c1ccccc1,44.5
4,CN([C@@H](CCCNC(=N)N)C(=O)N[C@@H](CCCCN)C(=O)N[C@@H](C(N)=O)c1ccccc1)S(=O)(=O)c1ccc(Cl)cc1,75.1
5,CN([C@@H](Cc1ccc(C(=N)N)cc1)C(=O)N[C@@H](CCCCN)C(=O)N[C@@H](C(N)=O)c1ccc(OCc2ccccc2)cc1)S(=O)(=O)c1ccccc1,99

# Target: Genome polyprotein (West Nile virus, UniProt P06935)
# Sequence (P06935 1371-1501 limits assumed): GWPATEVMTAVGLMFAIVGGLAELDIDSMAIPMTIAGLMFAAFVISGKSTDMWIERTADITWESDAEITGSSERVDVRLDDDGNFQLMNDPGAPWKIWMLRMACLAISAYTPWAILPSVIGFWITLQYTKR
# Sequence (P06935 1502-2120 limits assumed): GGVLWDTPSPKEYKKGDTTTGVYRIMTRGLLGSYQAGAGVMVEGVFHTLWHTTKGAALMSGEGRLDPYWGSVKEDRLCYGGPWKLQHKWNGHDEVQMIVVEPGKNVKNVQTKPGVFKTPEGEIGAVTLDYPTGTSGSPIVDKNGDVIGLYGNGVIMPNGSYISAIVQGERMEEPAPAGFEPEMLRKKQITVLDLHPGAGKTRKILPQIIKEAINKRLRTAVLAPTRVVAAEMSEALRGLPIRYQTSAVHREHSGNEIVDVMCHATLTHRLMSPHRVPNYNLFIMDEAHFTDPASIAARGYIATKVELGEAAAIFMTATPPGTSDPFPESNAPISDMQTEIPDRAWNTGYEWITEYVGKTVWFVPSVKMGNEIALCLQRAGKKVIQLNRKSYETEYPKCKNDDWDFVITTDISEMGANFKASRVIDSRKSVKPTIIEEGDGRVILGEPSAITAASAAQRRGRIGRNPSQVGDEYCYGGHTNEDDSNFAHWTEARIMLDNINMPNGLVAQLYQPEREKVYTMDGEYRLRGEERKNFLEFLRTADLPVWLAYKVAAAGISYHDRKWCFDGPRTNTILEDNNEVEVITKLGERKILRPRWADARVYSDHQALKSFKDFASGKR
# Experiment: Inhibition of West Nile virus NS2B-NS3 protease by biochemical enzymatic assay
# Details: not given
row,Compound,IC50 [µM]
1,CN([C@@H](Cc1ccc(C(=N)N)cc1)C(=O)N[C@@H](CCCCN)C(=O)N[C@@H](C(N)=O)c1ccc(OCc2ccccc2)cc1)S(=O)(=O)c1ccccc1,22.2

# Target: Genome polyprotein (West Nile virus) (UniProt P06935)
# Sequence (P06935 whole entry): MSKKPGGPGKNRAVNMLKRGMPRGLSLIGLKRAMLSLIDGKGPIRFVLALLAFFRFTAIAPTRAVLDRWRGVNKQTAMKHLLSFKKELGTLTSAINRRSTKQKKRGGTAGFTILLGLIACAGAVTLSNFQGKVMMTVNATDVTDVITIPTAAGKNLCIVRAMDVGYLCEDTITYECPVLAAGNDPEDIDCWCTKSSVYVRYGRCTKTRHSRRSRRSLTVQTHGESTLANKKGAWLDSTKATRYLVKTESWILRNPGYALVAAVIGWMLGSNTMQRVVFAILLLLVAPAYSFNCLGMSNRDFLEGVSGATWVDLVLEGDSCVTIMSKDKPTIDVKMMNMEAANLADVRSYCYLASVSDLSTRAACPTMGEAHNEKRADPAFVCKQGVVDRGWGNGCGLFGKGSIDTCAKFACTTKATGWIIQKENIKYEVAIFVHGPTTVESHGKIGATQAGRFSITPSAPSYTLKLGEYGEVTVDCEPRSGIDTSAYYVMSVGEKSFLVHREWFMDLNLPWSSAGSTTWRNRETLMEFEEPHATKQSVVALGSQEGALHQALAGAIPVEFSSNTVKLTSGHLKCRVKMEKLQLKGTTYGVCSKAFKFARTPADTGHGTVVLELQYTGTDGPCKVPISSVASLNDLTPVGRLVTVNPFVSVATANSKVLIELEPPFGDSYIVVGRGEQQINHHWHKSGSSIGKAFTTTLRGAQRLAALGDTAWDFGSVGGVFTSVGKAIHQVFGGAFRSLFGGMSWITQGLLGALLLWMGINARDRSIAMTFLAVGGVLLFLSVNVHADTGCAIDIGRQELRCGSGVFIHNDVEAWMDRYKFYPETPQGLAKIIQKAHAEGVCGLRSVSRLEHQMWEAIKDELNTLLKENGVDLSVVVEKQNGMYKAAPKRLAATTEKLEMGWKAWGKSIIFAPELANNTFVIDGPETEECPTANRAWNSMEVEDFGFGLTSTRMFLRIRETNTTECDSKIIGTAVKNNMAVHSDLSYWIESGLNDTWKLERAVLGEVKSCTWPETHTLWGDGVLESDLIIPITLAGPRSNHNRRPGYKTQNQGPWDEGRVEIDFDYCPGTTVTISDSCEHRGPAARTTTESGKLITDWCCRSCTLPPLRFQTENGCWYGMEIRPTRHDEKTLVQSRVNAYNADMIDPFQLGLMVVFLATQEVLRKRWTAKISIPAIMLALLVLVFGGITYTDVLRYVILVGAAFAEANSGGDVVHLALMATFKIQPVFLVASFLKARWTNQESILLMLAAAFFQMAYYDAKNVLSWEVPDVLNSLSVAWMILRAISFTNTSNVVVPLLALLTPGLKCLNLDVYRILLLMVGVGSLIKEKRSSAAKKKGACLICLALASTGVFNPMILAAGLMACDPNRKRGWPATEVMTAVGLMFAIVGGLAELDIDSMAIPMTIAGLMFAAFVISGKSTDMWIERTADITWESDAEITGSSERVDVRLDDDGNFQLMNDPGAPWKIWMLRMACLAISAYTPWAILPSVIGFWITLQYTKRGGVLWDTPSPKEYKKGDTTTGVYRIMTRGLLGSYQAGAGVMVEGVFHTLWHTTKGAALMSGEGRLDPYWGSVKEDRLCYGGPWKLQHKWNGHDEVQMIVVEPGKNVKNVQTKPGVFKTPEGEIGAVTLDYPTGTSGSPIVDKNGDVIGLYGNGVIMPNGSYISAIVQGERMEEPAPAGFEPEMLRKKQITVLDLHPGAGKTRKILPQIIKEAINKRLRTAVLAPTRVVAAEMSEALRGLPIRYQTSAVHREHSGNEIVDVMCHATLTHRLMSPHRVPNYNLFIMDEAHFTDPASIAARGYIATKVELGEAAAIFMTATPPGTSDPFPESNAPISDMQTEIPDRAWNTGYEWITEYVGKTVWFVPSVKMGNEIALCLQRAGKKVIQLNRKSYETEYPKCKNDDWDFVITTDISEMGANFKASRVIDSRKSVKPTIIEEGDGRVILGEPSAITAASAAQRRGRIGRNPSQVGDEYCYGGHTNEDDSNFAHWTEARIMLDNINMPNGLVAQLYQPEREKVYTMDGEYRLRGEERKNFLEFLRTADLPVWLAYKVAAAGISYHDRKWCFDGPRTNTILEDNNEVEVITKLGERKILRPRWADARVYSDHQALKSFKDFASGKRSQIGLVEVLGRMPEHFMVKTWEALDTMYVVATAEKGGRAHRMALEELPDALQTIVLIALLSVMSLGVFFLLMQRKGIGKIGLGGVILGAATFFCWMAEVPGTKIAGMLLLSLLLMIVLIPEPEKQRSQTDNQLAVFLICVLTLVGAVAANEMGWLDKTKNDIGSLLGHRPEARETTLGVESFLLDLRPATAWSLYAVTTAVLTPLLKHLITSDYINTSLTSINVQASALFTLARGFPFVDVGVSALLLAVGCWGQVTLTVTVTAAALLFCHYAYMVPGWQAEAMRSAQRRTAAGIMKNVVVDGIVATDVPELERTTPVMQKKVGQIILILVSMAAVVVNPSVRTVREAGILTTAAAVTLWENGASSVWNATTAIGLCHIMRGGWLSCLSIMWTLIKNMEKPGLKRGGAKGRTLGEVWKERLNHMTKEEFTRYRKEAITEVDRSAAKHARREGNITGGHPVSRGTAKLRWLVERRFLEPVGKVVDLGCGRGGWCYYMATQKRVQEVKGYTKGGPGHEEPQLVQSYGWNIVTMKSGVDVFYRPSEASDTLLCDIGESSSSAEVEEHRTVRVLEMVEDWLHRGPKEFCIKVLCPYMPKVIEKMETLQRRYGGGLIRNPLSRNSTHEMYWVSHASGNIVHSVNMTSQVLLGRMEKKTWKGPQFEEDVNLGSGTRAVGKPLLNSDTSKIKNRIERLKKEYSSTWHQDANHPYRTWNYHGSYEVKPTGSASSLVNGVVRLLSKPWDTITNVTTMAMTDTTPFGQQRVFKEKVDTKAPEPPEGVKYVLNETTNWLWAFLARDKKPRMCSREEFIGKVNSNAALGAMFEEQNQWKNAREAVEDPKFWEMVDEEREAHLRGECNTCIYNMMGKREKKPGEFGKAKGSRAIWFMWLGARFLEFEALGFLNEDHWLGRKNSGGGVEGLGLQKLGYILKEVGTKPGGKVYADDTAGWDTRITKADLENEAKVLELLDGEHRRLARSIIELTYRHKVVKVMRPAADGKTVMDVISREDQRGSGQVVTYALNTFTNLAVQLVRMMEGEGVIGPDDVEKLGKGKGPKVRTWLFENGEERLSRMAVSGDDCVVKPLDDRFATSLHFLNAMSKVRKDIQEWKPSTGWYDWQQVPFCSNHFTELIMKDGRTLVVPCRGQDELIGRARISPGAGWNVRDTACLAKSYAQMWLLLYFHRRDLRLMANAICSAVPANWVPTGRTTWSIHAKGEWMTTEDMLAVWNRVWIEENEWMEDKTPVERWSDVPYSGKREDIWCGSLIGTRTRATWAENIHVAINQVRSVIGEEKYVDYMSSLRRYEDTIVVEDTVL
# Experiment: Inhibition of West Nile virus NS2B-NS3 protease at 50 uM by biochemical enzymatic assay relative to control
# Details: not given
row,Compound,inhibition [%]
1,CN([C@@H](CCCNC(=N)N)C(=O)N[C@@H](CCCCN)C(=O)N[C@@H](C(N)=O)c1ccccc1)S(=O)(=O)c1ccccc1,< 10
2,Cc1ccc(S(=O)(=O)N(C)[C@@H](CCCNC(=N)N)C(=O)N[C@@H](CCCCN)C(=O)N[C@@H](C(N)=O)c2ccccc2)cc1,< 10
3,N=C(N)NCCC[C@H](NS(=O)(=O)c1ccc(Cl)cc1)C(=O)N[C@@H](CCCCN)C(=O)N[C@@H](C(N)=O)c1ccccc1,15.5
4,CN([C@@H](CCCNC(=N)N)C(=O)N[C@@H](CCCCN)C(=O)N[C@@H](C(N)=O)c1ccccc1)S(=O)(=O)c1ccc(Cl)cc1,< 10
5,CN([C@@H](Cc1ccc(C(=N)N)cc1)C(=O)N[C@@H](CCCCN)C(=O)N[C@@H](C(N)=O)c1ccc(OCc2ccccc2)cc1)S(=O)(=O)c1ccccc1,68.9

# Target: Prothrombin (Homo sapiens) (UniProt P00734)
# Experiment: Inhibition of Thrombin (unknown origin) at 25 uM by biochemical assay relative to control
# Details: not given
row,Compound,inhibition [%]
1,CN(C)C(=O)COC(=O)Cc1ccc(OC(=O)c2ccc(NC(=N)N)cc2)cc1,99
2,N=C(N)NCCC[C@H](NC(=O)c1ccccc1)C(=O)N[C@@H](CCCCN)C(=O)N[C@@H](C(N)=O)c1ccc(OCc2ccccc2)cc1,< 10
3,CN([C@@H](CCCNC(=N)N)C(=O)N[C@@H](CCCCN)C(=O)N[C@@H](C(N)=O)c1ccccc1)S(=O)(=O)c1ccccc1,< 10
4,Cc1ccc(S(=O)(=O)N(C)[C@@H](CCCNC(=N)N)C(=O)N[C@@H](CCCCN)C(=O)N[C@@H](C(N)=O)c2ccccc2)cc1,< 10
5,N=C(N)NCCC[C@H](NS(=O)(=O)c1ccc(Cl)cc1)C(=O)N[C@@H](CCCCN)C(=O)N[C@@H](C(N)=O)c1ccccc1,< 10
6,CN([C@@H](CCCNC(=N)N)C(=O)N[C@@H](CCCCN)C(=O)N[C@@H](C(N)=O)c1ccccc1)S(=O)(=O)c1ccc(Cl)cc1,< 10
7,CN([C@@H](Cc1ccc(C(=N)N)cc1)C(=O)N[C@@H](CCCCN)C(=O)N[C@@H](C(N)=O)c1ccc(OCc2ccccc2)cc1)S(=O)(=O)c1ccccc1,22.9
